Test [1] has as its system Age-Impaired (AI) Long-Evans rats. Put plainly: Morris Water Maze retention trial, levetiracetam in aged-impaired rats. The test is classed as in vivo, rat. The method, then: The MWM apparatus consists of a large, circular pool (diameter 1.83 m; height, 0.58 m) filled with water (27° C.) that is made opaque through the addition of non-toxic pigment or some other substance. In the typical “hidden platform” version of the test, rats are trained to find a camouflaged white escape platform (height, 34.5 cm) that is positioned in the center of one quadrant of the maze about 1.0 cm below the water surface. This platform can be retracted to the bottom of the tank or raised to its normal position from outside the maze during behavioral testing. The location of the platform remains constant from trial to trial. Because there are no local cues that mark the position of the platform, the rat's ability to locate it efficiently from any starting position at the perimeter of the pool depends on using information surrounding the maze. The maze is surrounded by black curtains to which white patterns are affixed to provide a configuration of spatial cues. A second platform (height 37.5 cm), with its surface painted black is elevated 2 cm above the water surface during cue training to control for factors unrelated to cognition. The behavior of a rat in the pool is recorded by a camera that is suspended 2.5 m above the center of the pool. The camera is connected to a video tracking system (HVS Image Advanced Tracker VP200) and a PC computer running HVS software developed by Richard Baker of HVS Image, Hampton, UK. The MWM protocol is optimized for sensitivity to the effects of aging on cognition and for measures of reliable individual differences within the aged population of out-bred Long-Evans rats (Gallagher et al. Behav. Neurosci. 107:618-626, (1993)). Rats receive three trials per day for 8 consecutive days, using a 60 sec inter-trial interval. On each training trial, the rat is released into the maze from one of four equally spaced starting positions around the perimeter of the pool. The starting position varies from trial to trial, thus preventing the use of a response strategy (e.g., always turning left from the start location to locate the escape platform). […] Every sixth trial consists of a probe trial to assess the development of spatial bias in the maze. During these trials, the rat swims with the platform being refracted to the bottom of the pool for 30 sec, at which time the platform is raised to its normal position for completion of the escape trial. At the completion of the protocol using the hidden platform, rats are assessed for cue learning using the visible platform. The location of this platform varies from trial to trial in a single session of 6 training trials. […]

The test system of test [2] is entorhinal cortex (EC) of aMCI subjects. Put plainly: fMRI activity in entorhinal cortex during lure stimuli correctly identified as similar. In kind it is in vivo, human. To be noted: 125 mg twice a day for two weeks vs placebo. The method, then:
A within-subjects trial of 8 weeks duration, involving 17 amnestic MCI (aMCI) subjects and 17 age-matched controls with a low dose treatment of levetiracetam is conducted. During the course of the study, each aMCI subject receives both drug and placebo treatments separately in two periods of two weeks each, with the order of treatments among different aMCI subjects being counterbalanced (see FIG. 7). Age-matched control subjects that are treated with placebo serve as a further control. Cognitive testing and fMRI imaging data are obtained from the subjects after each two week period of drug/placebo treatment. As described above, the drug treatment period is the two weeks preceding Visit 1 or 2 (with the two week period preceding the other Visit being the placebo phase). […] Imaging data are obtained through high-resolution methods developed in the Stark laboratory. Data are collected on a Phillips 3 Tesla scanner (Eindhoven, The Netherlands) equipped with an 8-channel SENSE (Sensitivity Encoding) head coil, located at the F.M. Kirby Research Center for Functional Brain Imaging at the Kennedy Krieger Institute (Baltimore, Md.). […] Group data are analyzed using a two-way Analysis of Variance (ANOVA) with trial types and group as fixed factors, and subject as a random factor nested within group. […]

[3] abbreviates: 10 mg/kg/day i.p., retention trial.

For `CC[C@@H](C(N)=O)N1CCCC1=O` [levetiracetam, (2S)-2-(2-oxopyrrolidin-1-yl) butanamide], the “performance (time in target quadrant) versus vehicle” value in test [1] (5 mg/kg/day i.p., retention trial) was “does not significantly improve”. For the same compound, in test [1] (setting [3]), the “memory as compared to vehicle-treated controls” value was “significantly improved memory” and the “time spent in the target annulus” value is listed as “effectiveness of the 10 mg/kg/day levetiracetam treatment is also seen”. Further, in test [1] (10 mg/kg/day i.p., retention trial 24 h after two training days, vehicle approximately 25%), the “time spent in the target quadrant, percentage of total swimming time” value is “approximately 35%”. Moreover, the “EC activity during memory judgments (fMRI)” value in test [2] is on record as “normalizes activity”.

For the origin of these results see patent US10154988B2, “Methods and compositions for treating schizophrenia” (The Johns Hopkins University, priority 2012, dated 2018).
